Holding throughout (conditions): pH 7.4; 25 °C
For assay [1], the target named is T1, Adenosine receptor A1 (Homo sapiens, UniProt P30542).
T1 sequence (P30542 whole entry): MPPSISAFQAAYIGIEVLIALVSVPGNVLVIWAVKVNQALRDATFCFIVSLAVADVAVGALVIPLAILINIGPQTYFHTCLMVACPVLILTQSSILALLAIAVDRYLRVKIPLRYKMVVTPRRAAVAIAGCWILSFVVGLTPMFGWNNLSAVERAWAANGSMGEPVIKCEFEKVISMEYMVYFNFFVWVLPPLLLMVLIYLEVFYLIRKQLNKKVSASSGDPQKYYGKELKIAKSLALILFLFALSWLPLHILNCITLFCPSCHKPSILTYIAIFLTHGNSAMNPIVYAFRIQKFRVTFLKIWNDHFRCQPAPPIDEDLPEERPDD
Nature of the assay: A1 Adenosine Receptor Binding Assay. The protocol: Aliquots of cell membranes (30 ug proteins) were incubated at 25 °C for 180 min in 500 uL of binding buffer (50 mM Tris-HCl, 2 mM MgCl2, 2 units/mL ADA, pH 7.4) containing [3H]DPCPX (3 nM) and six different concentrations of the tested compounds. Non-specific binding was determined in the presence of 50 µM R-PIA. The dissociation constant (Kd) of [3H]DPCPX in human A1 AR CHO cell membranes was 3 nM.

Assay [2] concerns the target Adenosine receptor A2a (Homo sapiens, UniProt P29274). Nature of the assay: A2A Adenosine Receptor Binding Assay. As for the experimental part:
Aliquots of cell membranes (30 ug) were incubated at 25 °C for 90 min in 500 uL of binding buffer (50 mM Tris-HCl, 2 mm MgCl2, 2 units/mL ADA, pH 7.4) in the presence of 30 nM of [3H]NECA and six different concentrations of the tested compounds. Non-specific binding was determined in the presence of 100 uM R-PIA.

Assay [3] has as its target T2, Adenosine receptor A3 (Homo sapiens, UniProt P0DMS8).
T2 sequence (P0DMS8 whole entry): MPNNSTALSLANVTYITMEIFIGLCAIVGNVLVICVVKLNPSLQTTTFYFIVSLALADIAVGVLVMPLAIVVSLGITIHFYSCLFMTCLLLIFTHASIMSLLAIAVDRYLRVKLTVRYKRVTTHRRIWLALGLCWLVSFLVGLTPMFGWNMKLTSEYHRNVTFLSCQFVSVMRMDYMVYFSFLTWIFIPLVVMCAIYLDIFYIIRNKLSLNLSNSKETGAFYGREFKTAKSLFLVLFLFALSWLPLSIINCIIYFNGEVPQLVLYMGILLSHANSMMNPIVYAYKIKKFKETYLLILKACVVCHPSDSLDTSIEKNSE
Nature of the assay: A3 Adenosine Receptor Binding Assay. As for the experimental part:
Aliquots of cell membranes (90 ug) were incubated at 25 °C for 180 min in 500 uL of binding buffer (50 mM Tris-HCl, 5 mM MgCl2, 1 mM EDTA, 2 units/mL ADA, pH 7.4) in the presence of 30 nm [3H]NECA and six different concentrations of the tested compounds. Non-specific binding was determined in the presence of 100 uM R-PIA.

Bounds are passed on as bounds.

Adenosine receptor A2a, sequence (P29274 whole entry): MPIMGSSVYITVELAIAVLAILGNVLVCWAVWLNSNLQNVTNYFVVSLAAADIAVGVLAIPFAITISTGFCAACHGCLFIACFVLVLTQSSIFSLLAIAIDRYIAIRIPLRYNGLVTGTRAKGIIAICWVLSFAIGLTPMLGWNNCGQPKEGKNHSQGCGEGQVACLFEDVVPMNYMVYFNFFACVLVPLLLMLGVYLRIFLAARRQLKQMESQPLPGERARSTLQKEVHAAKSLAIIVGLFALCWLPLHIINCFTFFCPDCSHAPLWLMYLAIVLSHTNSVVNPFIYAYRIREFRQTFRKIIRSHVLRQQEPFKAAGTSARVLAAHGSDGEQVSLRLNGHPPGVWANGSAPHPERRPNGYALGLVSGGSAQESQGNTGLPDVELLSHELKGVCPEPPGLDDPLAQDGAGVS

For the compound `Nc1cc(OCc2ccccc2)nc(SCc2ccccc2)n1` [4-amino-6-alkyloxy-2-benzylthiopyrimidines (6)], the results for the Ki in assay [1], in assay [2] and in assay [3] were 1200 nM, more than 10000 nM and more than 10000 nM, respectively.
Compound `CCCOc1cc(N)nc(SCc2ccccc2)n1` [4-amino-6-alkyloxy-2-benzylthiopyrimidines (4)] displayed a half-maximal effective concentration (EC50) in assay [1] of 490 nM. In addition, the values for the Ki in assay [1], in assay [2] and in assay [3] were 1240 nM, more than 10000 nM and more than 10000 nM, respectively.
In the case of `CC(C)COc1cc(N)nc(SCc2ccccc2)n1` [4-amino-6-alkyloxy-2-benzylthiopyrimidines (5)], in assay [1], the response was half-maximal at 870 nM (EC50). In addition, the Ki in assay [1] is 1940 nM; in assay [2], more than 10000 nM; in assay [3] it was more than 10000 nM.

Usually Ki stands for the equilibrium dissociation constant of an inhibitor or competing ligand from its target. For orientation: EC50 means the concentration giving half of the maximal effect. A higher EC50 goes with lower potency in that assay.

The values are drawn from BindingDB's records for doi:10.1111/cbdd.12801 (2016).
